Laboratory results: patent publication US9926293B2, “Multivalent RAS binding compounds” (THE TRUSTEES OF COLUMBIA UNIVERSITY IN THE CITY OF NEW YORK, priority 2014, dated 2018)
Like-named read-outs stand apart in the source and are kept apart here.

Experiments:
[1] = tested on: MDA-MB-231 cell line (KRAS^G13D); assay: Multicellular tumor spheroids in low adherence plates; format: cell-based; details: 72 hours; for size of multicellular tumor spheroids: low-adherence plates
Description: Multicellular Tumor Spheroids
Multicellular tumor spheroids (MCTSs) were grown in 96-well Corningware Ultra Low Attachment (ULA) Plates (CLS 3474). 100 μL of cell suspension containing 2×10^4 cells/ml were added to each well of the ULA plate containing 100 μL of a 2× solution of the desired concentration of compounds. Cells were incubated at 37° C., 5% CO2 for 72 hours to allow for MCTS formation. After 72 hours, 50 μL of a 50% solution of Alamar blue and medium was added and incubated for 12 hours prior to measurements on a Victor3 plate reader as previously described.

SW480 (KRAS G12V) = assay: Cell viability assay (384-well, Alamar blue); format: cell-based; details: Homo sapiens, SW480, 48 h
Description: (§1) All cell culture assays were incubated at 37° C., 5% CO2 in media containing Dulbecco's Modified Eagle Medium (DMEM) with 10% fetal bovine serum (FBS) and 1% penicillin-streptomycin (PS). 384-well format for EC50 determination: cells were trypsinized, counted, and seeded into 384-well plates at 1,000 cells/well. After 12-16 hours, compounds (as 50 mM stocks in DMSO) were arrayed in an 8- or 16-point dilution series in 384-well polypropylene plates. Compound solutions were transferred at a 1:5 dilution into the assay plates. After 48 hours, a 50% Alamar blue solution was added to a final concentration of 10% Alamar blue. After 6 hours of incubation, fluorescence intensity was determined using a Victor3 plate reader (Perkin Elmer) with a 535 nm excitation filter and a 590 nm emission filter. All compound measurements were performed in triplicate. For experiments performed in 6-well format, cells were trypsinized, counted, and seeded into 6-well plates at 200,000 cells per well 16 h prior to use. Media was then aspirated and replaced with 2 mL of media containing compounds at the indicated concentrations (from 10 mM stocks in DMSO). After 24 hours, cells were trypsinized and viability was determined using Trypan Blue exclusion assay.

HPAFII (KRAS G12D) = assay: Cell viability assay (384-well, Alamar blue); format: cell-based; details: Homo sapiens, HPAF-II, 48 h
Description: as §1

Panc-1 (KRAS G12D) = assay: Cell viability assay (384-well, Alamar blue); format: cell-based; details: Homo sapiens, PANC-1, 48 h
Description: as §1

MDA-MB-231 (KRAS G13D) = assay: Cell viability assay (384-well, Alamar blue); format: cell-based; details: Homo sapiens, MDA-MB-231, 48 h
Description: as §1

BJeLR (HRAS G12V) = assay: Cell viability assay (384-well, Alamar blue); format: cell-based; details: 48 h
Description: as §1

Calu-1 (KRAS G12C) = assay: Cell viability assay (384-well, Alamar blue); format: cell-based; details: Homo sapiens, Calu-1, 48 h
Description: as §1

MIA Paca-2 (KRAS G12C) = assay: Cell viability assay (384-well, Alamar blue); format: cell-based; details: Homo sapiens, MIA PaCa-2, 48 h
Description: as §1

[2] = tested on: caspases 3 and 7 in HT-1080 (NRAS^Q61K) cells; assay: Caspase 3/7 activation assay; format: cell-based; details: staurosporine 5 μM, 24 hours
Description: Caspase 3/7 Activation Assay
HT-1080 cells were seeded into 384-well plates at 1,000 cells/well. After 12-16 hours, compounds (as 50 mM stocks in DMSO) were arrayed in a dilution series in 384-well polypropylene plates. Compound solutions were transferred at a 1:5 dilution into the assay plates for a total volume of 40 μL. After 24 hours, 8 μL of a 1:100 solution of rhodamine 110 bis-(N-CBZ-1-aspartyl-1-glutamyl-1-valyl-aspartic acid amide) to lysis buffer (APO-1, Promega) was added and the plate was wrapped in aluminum foil and incubated at room temperature for 16 hours. Fluorescence intensity was then determined using a Victor3 plate reader (Perkin Elmer) with a 490 nm excitation filter and a 535 nm emission filter. A viability curve was performed in parallel with the same incubation time using the procedure described in the “cell viability assays” section.

GppNHp-loaded KRASG12D = biological target: T1, GppNHp-loaded KRASG12D (Homo sapiens, UniProt P01116, G12D); assay: Microscale thermophoresis, lysine NT-647-labeled GppNHp-loaded KRAS^G12D; format: binding; details: read-out: dissociation constant KD
T1 construct: made in house; host or cells: Escherichia coli BL21-Gold (DE3)
Description: Microscale Thermophoresis
KRAS^G12D (250 μM) in 25 mM HEPES, 100 mM sodium chloride, 2 mM TCEP with 20 mM EDTA and 1 mM GppNHp was shaken at 220 rpm at 30° C. to remove the endogenous nucleotide, The solution was placed on ice for 2 minutes prior to the addition of 65 mM MgCl2. After an additional 10 minutes incubation on ice, 200 uL of a 10 uM solution of KRAS^G12D was combined with 200 uL of a 20 uM solution of NT-647-NHS-ester dye (from a 652.4 μM stock). The protein/dye mixture was rotated at 4° C. for 30 minutes, before being separated from the excess dye and buffer exchanged into 25 mM Tris, 100 mM sodium chloride, 2 mM TCEP, and 5 mM MgCl2 via a nap-5 column. The test compounds were arrayed across a 16-point dilution series consisting of 1.5% DMSO with 25 mM Tris, 100 mM NaCl, 2 mM TCEP, 5 mM MgCl2 and 0.05% tween-20. Thermophoretic movement of the fluorescently labeled protein with the inhibitors was performed using a Monolith NT.115 (Nanotemper Technologies). RALA and RHOA were purchased commercially from Abcam (RALA CN:ab102555, RHOA CN:ab101594).
In another set of experiments, the top D38-A59 two-site multivalent compounds were evaluated by a RAS pulldown using the RAS binding domain of CRAF (the top two hits are shown in FIG. 14D). This abrogation of binding between RAS and its effector protein was also evident in the RAS-RALGDS interaction (FIG. 14E). To quantify the binding of the two-site compounds to RAS, MST was performed again using lysine NT-647-labeled, GppNHp-loaded KRAS^G12D. […] The third (Y32) site was extended into (compound 34MEW95) using this scaffold.
Docking scores and dissociation constants for binding to GppNHp-bound KRAS^G12D (PDB:4DSN) were measured as set forth above for additional 2- and 3-site compounds by microscale thermophoresis.

[3] = Table 7, 8-point dilution series
[4] = Table 8, MDA-MB-231 (KRAS^G13O), 384-well, alamar blue
[5] = 31MEW44 5 μM, 34MEW43 10 μM, 34MEW95 5 μM

T1 sequence (P01116 1-169 isoform P01116-2 G12D): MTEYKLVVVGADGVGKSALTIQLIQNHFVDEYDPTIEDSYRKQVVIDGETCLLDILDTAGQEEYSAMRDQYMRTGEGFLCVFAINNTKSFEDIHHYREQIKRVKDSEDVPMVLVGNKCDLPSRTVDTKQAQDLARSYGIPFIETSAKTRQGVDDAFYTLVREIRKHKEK

Row | Kd (GppNHp-loaded KRASG12D) [µM] | SMILES | size of multicellular tumor spheroids [1] | EC50 (SW480 (KRAS G12V); [3]) [µM] | EC50 (SW480 (KRAS G12V); Table 8, 384-well, alamar blue) [µM] | EC50 (HPAFII (KRAS G12D); [3]) [µM] | EC50 (HPAFII (KRAS G12D); Table 8, 384-well, alamar blue) [µM] | EC50 (Panc-1 (KRAS G12D); [3]) [µM] | EC50 (Panc-1 (KRAS G12D); Table 8, 384-well, alamar blue) [µM] | EC50 (MDA-MB-231 (KRAS G13D); [3]) [µM] | EC50 (MDA-MB-231 (KRAS G13D); [4]) [µM] | EC50 (BJeLR (HRAS G12V); [3]) [µM] | EC50 (BJeLR (HRAS G12V); Table 8, 384-well, alamar blue) [µM] | EC50 (Calu-1 (KRAS G12C); [3]) [µM] | EC50 (Calu-1 (KRAS G12C); Table 8, 384-well, alamar blue) [µM] | EC50 (MIA Paca-2 (KRAS G12C); [3]) [µM] | EC50 (MIA Paca-2 (KRAS G12C); Table 8, 384-well, alamar blue) [µM] | fluorescence of caspase 3/7 substrate [2, 5] | effect on three dimensional multicellular spheroids ([1]; 20 μM) | fluorescence of caspase 3/7 substrate ([2]; 31MEW44 2.5 and 5 μM) | Kd (GppNHp-loaded KRASG12D; MST, GppNHp-loaded KRAS^G12D, 34MEW43 and 34MEW95 estimated, no full dose-response curve) [µM]
1 | 73 | NC1(C(=O)NCCCn2cc(-c3cccc(F)c3)c3c(CN4CCN(CCOc5ccc(Cl)cc5)CC4)cccc32)CCNCC1 [Compound 34MEW43, 4-amino-N-(3-(4-((4-(2-(4-chlorophenoxy)ethyl)piperazin-1-yl)methyl)-3-(3-fluorophenyl)-1H-indol-1-yl)propyl)piperidine-4-carboxamide] | decreased in size in a dose-dependent manner | 7.06 | 7.1 | 16.4 | 16 | 5.96 | 6 | 5.63 | 5.6 | 9.71 | 9.7 | 9.42 | 9.4 | 8.45 | 8.5 | Increased fluorescence |  |  | 
2 |  | NC1(C(=O)NCCCn2cc(-c3ccc(OC(F)(F)F)cc3)c3cc(CN4CCN(Cc5c(Cl)cccc5Cl)CC4)ccc32)CCNCC1 [Compound 31MEW44, 4-amino-N-(3-(5-((4-(2,6-dichlorobenzyl)piperazin-1-yl)methyl)-3-(4-(trifluoromethoxy)phenyl)-1H-indol-1-yl)propyl)piperidine-4-carboxamide] | decreased in size in a dose-dependent manner | 2.18 | 2.2 | 6.02 | 5.2 | 2.06 | 5.1 | 2.26 | 2.3 | 3.95 | 4 | 3.6 | 3.6 | 2.81 | 3.2 | Increased fluorescence | killed | Increased fluorescence | 9
